Results as given in patent US10925283B2, “Microbiocidal phenylamidine derivatives” (SYNGENTA PARTICIPATIONS AG, priority 2016, dated 2021).

What was measured:
Type in all cases: in vivo
[1] = system: Blumeria graminis f. sp. tritici (Erysiphe graminis f. sp. tritici); test: Blumeria graminis f. sp. tritici / wheat / leaf disc preventative (powdery mildew on wheat); conditions: foliar, wheat leaf segments cv. Kanzler, inoculated 1 day after application, assessed 6-8 days after application, read-out: control of Blumeria graminis f. sp. tritici (percent disease control compared to untreated)
Method: Blumeria graminis f. sp. tritici (Erysiphe graminis f. sp. tritici)/Wheat/Leaf Disc Preventative (Powdery Mildew on Wheat) Wheat leaf segments cv. Kanzler are placed on agar in a multiwell plate (24-well format) and sprayed with the formulated test compound diluted in water. The leaf disks are inoculated by shaking powdery mildew infected plants above the test plates 1 day after application. The inoculated leaf disks are incubated at 20° C. and 60% rh under a light regime of 24 h darkness followed by 12 h light/12 h darkness in a climate chamber and the activity of a compound is assessed as percent disease control compared to untreated when an appropriate level of disease damage appears on untreated check leaf segments (6-8 days after application).

Phakopsora pachyrhizi = Phakopsora pachyrhizi / soybean / preventative (soybean rust); conditions: foliar, soybean leaf disks, inoculated one day after application, assessed 12-14 days after application, read-out: control of Phakopsora pachyrhizi (percent disease control compared to untreated)
Method: Phakopsora pachyrhizi/Soybean/Preventative (Soybean Rust) Soybean leaf disks are placed on water agar in multiwell plates (24-well format) and sprayed with the formulated test compound diluted in water. One day after application leaf discs are inoculated by spraying a spore suspension on the lower leaf surface. After an incubation period in a climate cabinet of 24-36 hours in darkness at 20° C. and 75% rh leaf disc are kept at 20° C. with 12 h light/day and 75% rh. The activity of a compound is assessed as percent disease control compared to untreated when an appropriate level of disease damage appears in untreated check leaf disks (12-14 days after application).

[2] = system: Puccinia recondita f. sp. tritici; test: Puccinia recondita f. sp. tritici / wheat / leaf disc curative (brown rust); conditions: foliar, wheat leaf segments cv. Kanzler, compound applied 1 day after inoculation, assessed 6-8 days after application, read-out: control of Puccinia recondita f. sp. tritici (percent disease control compared to untreated)
Method: Puccinia recondita f. Sp. Tritici/Wheat/Leaf Disc Curative (Brown Rust) Wheat leaf segments cv. Kanzler are placed on agar in multiwell plates (24-well format). The leaf segments are inoculated with a spore suspension of the fungus. Plates are stored in darkness at 19° C. and 75% rh. The formulated test compound diluted in water is applied 1 day after inoculation. The leaf segments are incubated at 19° C. and 75% rh under a light regime of 12 h light/12 h darkness in a climate cabinet and the activity of a compound is assessed as percent disease control compared to untreated when an appropriate level of disease damage appears in untreated check leaf segments (6-8 days after application).

[3] = system: Puccinia recondita f. sp. tritici; test: Puccinia recondita f. sp. tritici / wheat / leaf disc preventative (brown rust); conditions: foliar, wheat leaf segments cv. Kanzler, inoculated 1 day after application, assessed 7-9 days after application, read-out: control of Puccinia recondita f. sp. tritici (percent disease control compared to untreated)
Method: Puccinia recondita f. Sp. Tritici/Wheat/Leaf Disc Preventative (Brown Rust) Wheat leaf segments cv. Kanzler are placed on agar in multiwell plates (24-well format) and sprayed with the formulated test compound diluted in water. The leaf disks are inoculated with a spore suspension of the fungus 1 day after application. The inoculated leaf segments are incubated at 19° C. and 75% rh under a light regime of 12 h light/12 h darkness in a climate cabinet and the activity of a compound is assessed as percent disease control compared to untreated when an appropriate level of disease damage appears in untreated check leaf segments (7-9 days after application).

Compound | pest or weed control at 200 ppm [1] | pest or weed control at 200 ppm (Phakopsora pachyrhizi) | pest or weed control at 200 ppm [2] | pest or weed control at 200 ppm [3]
CCCOCCC(O)(c1cc(C)c(/N=C/N(C)CC)cc1OC)C(F)(F)F (centres unmarked) [E.052, N-ethyl-N′-[4-[1-hydroxy-3-propoxy-1-(trifluoromethyl)propyl]-5-methoxy-2-methyl-phenyl]-N-methyl-formamidine] | ≥ 80% | ≥ 80% | ≥ 80% | ≥ 80%
CCN(C)/C=N/c1cc(OC)c(C(O)(C2CCOCC2)C(F)(F)F)cc1C (centres unmarked) [E.055, N-ethyl-N′-[5-methoxy-2-methyl-4-(2,2,2-trifluoro-1-hydroxy-1-tetrahydropyran-4-yl-ethyl)phenyl]-N-methyl-formamidine] | ≥ 80% | ≥ 80% | ≥ 80% | ≥ 80%
CC#CCOCCC(O)(c1cc(C)c(/N=C/N(C)CC)cc1OC)C(F)(F)F (centres unmarked) [E.049, N′-[4-[3-but-2-ynoxy-1-hydroxy-1-(trifluoromethyl)propyl]-5-methoxy-2-methyl-phenyl]-N-ethyl-N-methyl-formamidine] | ≥ 80% | ≥ 80% | ≥ 80% | ≥ 80%
CCN(C)/C=N/c1cc(OC)c(C(O)(CSc2ccc(F)cc2)C(F)(F)F)cc1C (centres unmarked) [E.068, N-ethyl-N′-[5-methoxy-2-methyl-4-[2,2,2-trifluoro-1-[(4-fluorophenyl)sulfanylmethyl]-1-hydroxy-ethyl]phenyl]-N-methyl-formamidine] | ≥ 80% | ≥ 80% | ≥ 80% | ≥ 80%
CCOCCOCC(O)(c1cc(C)c(/N=C/N(C)CC)cc1OC)C(F)(F)F (centres unmarked) [E.020, N′-[4-[1-(2-ethoxyethoxymethyl)-2,2,2-trifluoro-1-hydroxy-ethyl]-5-methoxy-2-methyl-phenyl]-N-ethyl-N-methyl-formamidine] | ≥ 80% | ≥ 80% | ≥ 80% | ≥ 80%
CCC(CC)OCC(O)(c1cc(C)c(/N=C/N(C)CC)cc1OC)C(F)(F)F (centres unmarked) [E.024, N-ethyl-N′-[4-[1-(1-ethylpropoxymethyl)-2,2,2-trifluoro-1-hydroxy-ethyl]-5-methoxy-2-methyl-phenyl]-N-methyl-formamidine] | – | ≥ 80% | – | –
CCN(C)/C=N/c1cc(OC)c(C(O)(COCc2ccccc2)C(F)(F)F)cc1C (centres unmarked) [E.043, N′-[4-[1-(benzyloxymethyl)-2,2,2-trifluoro-1-hydroxy-ethyl]-5-methoxy-2-methyl-phenyl]-N-ethyl-N-methyl-formamidine] | ≥ 80% | ≥ 80% | – | ≥ 80%
CCN(C)/C=N/c1cc(OC)c(C(O)(CSc2ccccc2)C(F)(F)F)cc1C (centres unmarked) [E.072, N-ethyl-N′-[5-methoxy-2-methyl-4-[2,2,2-trifluoro-1-hydroxy-1-(phenylsulfanylmethyl)ethyl]phenyl]-N-methyl-formamidine] | ≥ 80% | ≥ 80% | – | ≥ 80%
CCN(C)/C=N/c1cc(OC)c(C(O)(CO[C@H]2CC[C@H](C)CC2)C(F)(F)F)cc1C (some centres unmarked) [E.004, N-ethyl-N′-[5-methoxy-2-methyl-4-[2,2,2-trifluoro-1-hydroxy-1-[(4-methylcyclohexoxy)methyl]ethyl]phenyl]-N-methyl-formamidine] | – | ≥ 80% | – | –
CCN(C)/C=N/c1cc(OC)c(C(O)(COCc2cccc(C)c2)C(F)(F)F)cc1C (centres unmarked) [E.035, N-ethyl-N′-[5-methoxy-2-methyl-4-[2,2,2-trifluoro-1-hydroxy-1-(m-tolylmethoxymethyl)ethyl]phenyl]-N-methyl-formamidine] | ≥ 80% | – | ≥ 80% | ≥ 80%
CCN(C)/C=N/c1cc(OC)c(C(O)(COCc2ccco2)C(F)(F)F)cc1C (centres unmarked) [E.023, N-ethyl-N′-[5-methoxy-2-methyl-4-[2,2,2-trifluoro-1-(2-furylmethoxymethyl)-1-hydroxy-ethyl]phenyl]-N-methyl-formamidine] | ≥ 80% | – | ≥ 80% | ≥ 80%
CCN(C)/C=N/c1cc(OC)c(C(O)(COCCOC)C(F)(F)F)cc1C (centres unmarked) [E.012, N-ethyl-N′-[5-methoxy-2-methyl-4-[2,2,2-trifluoro-1-hydroxy-1-(2-methoxyethoxymethyl)ethyl]phenyl]-N-methyl-formamidine] | ≥ 80% | – | ≥ 80% | ≥ 80%
CCN(C)/C=N/c1cc(OC)c(C(O)(COCC2(c3ccc(Cl)cc3)CC2)C(F)(F)F)cc1C (centres unmarked) [E.007, N′-[4-[1-[[1-(4-chlorophenyl)cyclopropyl]methoxymethyl]-2,2,2-triﬂuoro-1-hydroxy-ethyl]-5-methoxy-2-methyl-phenyl]-N-ethyl-N-methyl-formamidine] | ≥ 80% | – | ≥ 80% | ≥ 80%
CCN(C)/C=N/c1cc(OC)c(C(O)(COC2CCCC2)C(F)(F)F)cc1C (centres unmarked) [E.032, N′-[4-[1-(cyclopentoxymethyl)-2,2,2-trifluoro-1-hydroxy-ethyl]-5-methoxy-2-methyl-phenyl]-N-ethyl-N-methyl-formamidine] | – | ≥ 80% | – | –
CCN(C)/C=N/c1cc(OC)c(C(O)(COC2Cc3ccccc3C2)C(F)(F)F)cc1C (centres unmarked) [E.010, N-ethyl-N′-[5-methoxy-2-methyl-4-[2,2,2-trifluoro-1-hydroxy-1-(indan-2-yloxymethyl)ethyl]phenyl]-N-methyl-formamidine] | ≥ 80% | – | ≥ 80% | ≥ 80%
CCN(C)/C=N/c1cc(OC)c(C(O)(COCc2ccc(F)cc2)C(F)(F)F)cc1C (centres unmarked) [E.044, N-ethyl-N′-[5-methoxy-2-methyl-4-[2,2,2-trifluoro-1-[(4-fluorophenyl)methoxymethyl]-1-hydroxy-ethyl]phenyl]-N-methyl-formamidine] | ≥ 80% | ≥ 80% | – | ≥ 80%
CCN(C)/C=N/c1cc(OC)c(C(O)(COCC(C)(C)C)C(F)(F)F)cc1C (centres unmarked) [E.008, N′-[4-[1-(2,2-dimethylpropoxymethyl)-2,2,2-trifluoro-1-hydroxy-ethyl]-5-methoxy-2-methyl-phenyl]-N-ethyl-N-methyl-formamidine] | ≥ 80% | – | ≥ 80% | ≥ 80%
CCC1OCC(C)(COCC(O)(c2cc(C)c(/N=C/N(C)CC)cc2OC)C(F)(F)F)CO1 (centres unmarked) [E.017, N-ethyl-N′-[4-[1-[(2-ethyl-5-methyl-1,3-dioxan-5-yl)methoxymethyl]-2,2,2-trifluoro-1-hydroxy-ethyl]-5-methoxy-2-methyl-phenyl]-N-methyl-formamidine] | ≥ 80% | – | ≥ 80% | ≥ 80%
CCN(C)/C=N/c1cc(OC)c(C(O)(CS(=O)(=O)C(C)C)C(F)(F)F)cc1C (centres unmarked) [E.063, N-ethyl-N′-[5-methoxy-2-methyl-4-[2,2,2-trifluoro-1-hydroxy-1-(isopropylsulfonylmethyl)ethyl]phenyl]-N-methyl-formamidine] | ≥ 80% | – | ≥ 80% | ≥ 80%
